Source: patent US8557559B2, “Self-dying recombinant microorganism for measuring soil and water contamination” (priority 2010, dated 2013)

How the values were obtained:
Format in all cases: cell-based
[1] = tested on: recombinant strain, Sphingomonas paucimobilis (SEQ ID NO. 1); experiment: Verification of substrate specificity: fluorescence reaction of recombinant strain in inorganic medium (LIVE/DEAD BacLight staining, micro-plate reader); settings: inorganic medium with pyruvate; about 50 mg/L through about 500 mg/L; FIG. 2
Description: Phenanthrene was added to an inorganic medium including pyruvate as a carbon source, up to phenanthrene concentrations of about 50 mg/L through about 500 mg/L, the recombinant strain was inoculated, and a sample was taken every 24-hour and stained using LIVE/DEAD BacLight bacterial viability kit (Molecular Probes, L7012) and a fluorescence reaction was measured by a micro-plate reader.
A reaction of the recombinant strain with respect to an inorganic medium including hexane and hexadecane that are aliphatic hydrocarbon having the equivalent concentration, hexane concentrations being about 50 mg/L through about 500 mg/L and hexadecane concentrations being about 50 mg/L through about 500 mg/L, and a reaction of the recombinant strain with respect to an inorganic medium including toluene that is a monoaromatic hydrocarbon, toluene concentrations being about 1 mg/L through about 50 mg/L, were respectively measured for comparison.
The LIVE/DEAD BacLight bacterial viability kit is a dying scheme that labels, using a DNA-binding dye, DNA of a live microorganism with green fluorescence and labels, using […], DNA of dead microorganism with red fluorescence and thus, indicates a viability of microorganisms.
The reaction of the recombinant strain was expressed by a relative fluorescence intensity FL/FL0, that is, a value obtained by dividing a fluorescence reaction value FL of a recombinant strain exposed to a target contaminant by a fluorescence reaction value FL0 of a recombinant strain that is not exposed to the target contaminant. The relative fluorescence intensity FL/FL0 expresses the reaction of the recombinant strain, which is based on a concentration of contaminant, with a rate of decreasing fluorescence and thus, an error rate may be reduced during a test, and a concentration of toxicity may be expressed with a standardized fluorescence intensity value.

[2] = tested on: recombinant strain, Sphingomonas paucimobilis (SEQ ID NO. 1); experiment: Performance of recombinant strain in model soil (Ottawa sand), CLSM fluorescence quantified with ImageJ; settings: model soil contaminated 50 mg/kg to 1000 mg/kg; FIG. 3
Excerpt: (§1) A confocal laser scanning microscope (CLSM) may measure a fluorescence reaction of the mixture of a soil sample and microorganisms to analyze phenanthrene in the soil sample. An image including measured green fluorescence and measured red fluorescence may be converted into a grayscale image after removing the measured red fluorescence from the image based on Adobe Photoshop CS4 (Adobe Systems, CA, USA). An integrated fluorescence intensity in an image of 254×254 pixels was quantified using a measure function of ImageJ program (ImageJ; Rasband, 1997-2009). The integrated fluorescence intensity may be a value obtained by dividing sum of illuminance of all the pixels by a number of the pixels in the image.
Ottawa sand was used as a model soil. The model soil was contaminated with phenanthrene up to concentrations from 50 mg/kg to 1000 mg/kg, an inorganic medium including pyruvate as a source of carbon was added, the inorganic medium of 10 mL per the model soil of 2 g, the recombinant strain was inoculated, and a sample was taken every 24-hour to measure a fluorescence response.
A fluorescence response was photographed by a CLSM to directly measure a mixture of the model soil, the liquid medium, and the recombinant strain, and the measured fluorescence reaction was quantified using an ImageJ program. […]

[3] = tested on: recombinant strain, Sphingomonas paucimobilis (SEQ ID NO. 1); experiment: Performance of recombinant strain in real soil (M soil), CLSM fluorescence; settings: 50 mg/kg to 1000 mg/kg, 24-hours, FIGS. 5 and 6
Excerpt: as §1
Phenanthrene was added to soil that had not been contaminated with phenanthrene up to concentrations from 50 mg/kg to 1000 mg/kg, an inorganic medium was added, the inorganic medium of 10 mL per soil of 2 g, the recombinant strain was inoculated and cultivated for 24-hours, and a reaction was measured in the same manner as Example 3.

SMILES | response of the recombinant strain (relative fluorescence intensity FL/FL0) [1] | response of the recombinant strain to phenanthrene in Ottawa sand [2] | reaction of the recombinant strain to phenanthrene in real soil [3]
CCCCCCCCCCCCCCCC [hexadecane] | may not respond |  | 
CCCCCC [hexane] | may not respond |  | 
c1ccc2c(c1)ccc1ccccc12 [phenanthrene] | death response | as phenanthrene concentrations increase, a number of live microorganisms decrease | significantly sensitive to phenanthrene concentrations
